# In US11497212B2, “Substituted thiophenyl uracils, salts thereof and the use thereof as herbicidal agents” (Syngenta Crop Protection AG, priority 2017, dated 2022):
# What was measured:
# Type in all cases: in vivo
# Zea mays [1] = assay: Crop compatibility pre-emergence (greenhouse pot trial); settings: effect vs untreated controls
# Source text: (§1) Seeds of mono- and dicotyledonous weeds and crop plants were laid out in plastic or organic plant pots and covered with soil. The compounds of the invention formulated in the form of wettable powders (WP) or emulsion concentrates (EC) were then applied to the surface of the covering soil as an aqueous suspension or emulsion with addition of 0.5% additive at a water application rate equivalent to 600 L/ha. After the treatment, the pots were placed in a greenhouse and kept under good growth conditions for the test plants. After about 3 weeks, the efficacy of the preparations was scored visually as a percentage by comparison with untreated controls. For example, 100% efficacy=plants have died, 0% efficacy=like control plants.
# (§2) Crop compatibilities were also scored correspondingly.
# (§3) The effects observed are reported here on selected crop plants by comparison with the untreated controls (values in %).
# Oryza sativa = assay: Crop compatibility post-emergence (greenhouse pot trial)
# Method in brief: (§4)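 Crops grown in sandy loam in greenhouse, sprayed at one-leaf stage (2–3 weeks after sowing) with WP or EC formulations in water plus 0.5% additive, 600 L/ha. Damage scored visually after about 3 weeks versus untreated controls, 0% = like control, 100% = dead.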
# Zea mays [2] = assay: as above
# Method in brief: as §4
# Triticum aestivum = assay: as above
# Method in brief: as §4
# Pharbitis purpurea [3] = assay: Herbicidal action post-emergence (greenhouse pot trial)
# Method in brief: (§5)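 Percent herbicidal efficacy, assessed by eye about 3 weeks after spraying, compares treated with untreated plants. Treatment is a post-emergence spray at the one-leaf stage, using a WP or EC preparation plus 0.5% additive in 600 L/ha of water, at 80 g/ha or lower.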
# Amaranthus retroflexus [4] = assay: as above; settings: scored visually after about 3 weeks vs untreated controls
# Method in brief: as §5
# Polygonum convolvulus = assay: as above; settings: scored visually after about 3 weeks vs untreated controls
# Method in brief: as §5
# Stellaria media [5] = assay: as above; settings: application rate 80 g/ha, scored visually after about 3 weeks vs untreated controls
# Method in brief: as §5
# Abutilon theophrasti [6] = assay: as above; settings: scored visually after about 3 weeks vs untreated controls
# Method in brief: as §5
# Viola tricolor [7] = assay: as above
# Method in brief: as §5
# Setaria viridis [8] = assay: as above; settings: application rate 80 g/ha, scored visually after about 3 weeks vs untreated controls
# Method in brief: as §5
# Matricaria inodora [9] = assay: as above; settings: scored visually after about 3 weeks vs untreated controls
# Method in brief: as §5
# Veronica persica [10] = assay: as above
# Method in brief: as §5
# Alopecurus myosuroides = assay: Herbicidal action pre-emergence (greenhouse pot trial); settings: application rate 320 g/ha, scored after about 3 weeks
# Source text: as §1, with “control plants. Tables B1 to B16 below show the efficacies of selected compounds of the general formula (I) according to tables I.1 to I.60 on various harmful plants and an application rate corresponding to 320 g/ha or lower that were obtained by the aforementioned trial method.” for “control plants.”
# Echinochloa crus-galli = assay: as above; settings: application rate 320 g/ha, scored after about 3 weeks
# Source text: as §1, with “control plants. Tables B1 to B16 below show the efficacies of selected compounds of the general formula (I) according to tables I.1 to I.60 on various harmful plants and an application rate corresponding to 320 g/ha or lower that were obtained by the aforementioned trial method.” for “control plants.”
# Pharbitis purpurea [11] = assay: as above; settings: application rate 320 g/ha
# Source text: as §1, with “control plants. Tables B1 to B16 below show the efficacies of selected compounds of the general formula (I) according to tables I.1 to I.60 on various harmful plants and an application rate corresponding to 320 g/ha or lower that were obtained by the aforementioned trial method.” for “control plants.”
# Amaranthus retroflexus [12] = assay: as above; settings: scored after about 3 weeks
# Source text: as §1, with “control plants. Tables B1 to B16 below show the efficacies of selected compounds of the general formula (I) according to tables I.1 to I.60 on various harmful plants and an application rate corresponding to 320 g/ha or lower that were obtained by the aforementioned trial method.” for “control plants.”
# Hordeum murinum = assay: as above; settings: application rate 320 g/ha
# Source text: as §1, with “control plants. Tables B1 to B16 below show the efficacies of selected compounds of the general formula (I) according to tables I.1 to I.60 on various harmful plants and an application rate corresponding to 320 g/ha or lower that were obtained by the aforementioned trial method.” for “control plants.”
# Stellaria media [13] = assay: as above; settings: application rate 320 g/ha, scored after about 3 weeks
# Source text: as §1, with “control plants. Tables B1 to B16 below show the efficacies of selected compounds of the general formula (I) according to tables I.1 to I.60 on various harmful plants and an application rate corresponding to 320 g/ha or lower that were obtained by the aforementioned trial method.” for “control plants.”
# Abutilon theophrasti [14] = assay: as above; settings: scored after about 3 weeks
# Source text: as §1, with “control plants. Tables B1 to B16 below show the efficacies of selected compounds of the general formula (I) according to tables I.1 to I.60 on various harmful plants and an application rate corresponding to 320 g/ha or lower that were obtained by the aforementioned trial method.” for “control plants.”
# Viola tricolor [15] = assay: as above; settings: scored after about 3 weeks
# Source text: as §1, with “control plants. Tables B1 to B16 below show the efficacies of selected compounds of the general formula (I) according to tables I.1 to I.60 on various harmful plants and an application rate corresponding to 320 g/ha or lower that were obtained by the aforementioned trial method.” for “control plants.”
# Setaria viridis [16] = assay: as above; settings: application rate 320 g/ha, scored after about 3 weeks
# Source text: as §1, with “control plants. Tables B1 to B16 below show the efficacies of selected compounds of the general formula (I) according to tables I.1 to I.60 on various harmful plants and an application rate corresponding to 320 g/ha or lower that were obtained by the aforementioned trial method.” for “control plants.”
# Avena fatua = assay: as above; settings: application rate 320 g/ha
# Source text: as §1, with “control plants. Tables B1 to B16 below show the efficacies of selected compounds of the general formula (I) according to tables I.1 to I.60 on various harmful plants and an application rate corresponding to 320 g/ha or lower that were obtained by the aforementioned trial method.” for “control plants.”
# Matricaria inodora [17] = assay: as above; settings: scored after about 3 weeks
# Source text: as §1, with “control plants. Tables B1 to B16 below show the efficacies of selected compounds of the general formula (I) according to tables I.1 to I.60 on various harmful plants and an application rate corresponding to 320 g/ha or lower that were obtained by the aforementioned trial method.” for “control plants.”
# Veronica persica [18] = assay: as above
# Source text: as §1, with “control plants. Tables B1 to B16 below show the efficacies of selected compounds of the general formula (I) according to tables I.1 to I.60 on various harmful plants and an application rate corresponding to 320 g/ha or lower that were obtained by the aforementioned trial method.” for “control plants.”
# Lolium rigidum = assay: as above; settings: application rate 320 g/ha
# Source text: as §1, with “control plants. Tables B1 to B16 below show the efficacies of selected compounds of the general formula (I) according to tables I.1 to I.60 on various harmful plants and an application rate corresponding to 320 g/ha or lower that were obtained by the aforementioned trial method.” for “control plants.”
# Glycine max [19] = assay: Crop compatibility post-emergence (greenhouse pot trial); settings: application rate 20 g/ha
# Method in brief: as §4
# Glycine max [20] = assay: Crop compatibility pre-emergence (greenhouse pot trial); settings: application rate 80 g/ha, effect vs untreated controls
# Source text: as §1, §2, §3
Oryza sativa (Efficacy in %) (Oryza sativa; application rate 20 g/ha),Zea mays (Efficacy in %) (Zea mays [2]; application rate 20 g/ha),Glycine max (Efficacy in %) (Glycine max [19]),Triticum aestivum (Efficacy in %) (Triticum aestivum; application rate 20 g/ha),Zea mays (Efficacy in %) (Zea mays [1]; application rate 80 g/ha),Glycine max (Efficacy in %) (Glycine max [20]),Structure (SMILES),Echinochloa crus-galli (Efficacy in %) (Echinochloa crus-galli),Pharbitis purpurea (Efficacy in %) (Pharbitis purpurea [11]),Amaranthus retroflexus (Efficacy in %) (Amaranthus retroflexus [12]; application rate 320 g/ha),Abutilon theophrasti (Efficacy in %) (Abutilon theophrasti [14]; application rate 320 g/ha),Viola tricolor (Efficacy in %) (Viola tricolor [15]; application rate 320 g/ha),Setaria viridis (Efficacy in %) (Setaria viridis [16]),Matricaria inodora (Efficacy in %) (Matricaria inodora [17]; application rate 320 g/ha),Pharbitis purpurea (Efficacy in %) (Pharbitis purpurea [3]; application rate 20 g/ha),Amaranthus retroflexus (Efficacy in %) (Amaranthus retroflexus [4]; application rate 20 g/ha),Abutilon theophrasti (Efficacy in %) (Abutilon theophrasti [6]; application rate 20 g/ha),Veronica persica (Efficacy in %) (Veronica persica [10]; application rate 20 g/ha),Viola tricolor (Efficacy in %) (Viola tricolor [7]; application rate 20 g/ha),further results
10%,–,–,–,–,–,C=CCN(C(=O)C(C)Sc1cc(-n2c(=O)cc(C(F)(F)F)n(C)c2=O)c(F)cc1Cl)C(C)COC (stereo not shown) [I.1-335],100%,100%,100%,100%,100%,100%,100%,–,–,–,–,–,Zea mays (Efficacy in %) (Zea mays [1]; application rate 20 g/ha): 20%; Zea mays (Efficacy in %) (Zea mays [2]; application rate 80 g/ha): 10%; Triticum aestivum (Efficacy in %) (Triticum aestivum; application rate 80 g/ha): 20%; Pharbitis purpurea (Efficacy in %) (Pharbitis purpurea [3]; application rate 80 g/ha): 100%; Amaranthus retroflexus (Efficacy in %) (Amaranthus retroflexus [4]; application rate 80 g/ha): 100%; Polygonum convolvulus (Efficacy in %) (Polygonum convolvulus; application rate 80 g/ha): 100%; Stellaria media (Efficacy in %) (Stellaria media [5]): 100%; Abutilon theophrasti (Efficacy in %) (Abutilon theophrasti [6]; application rate 80 g/ha): 100%; Viola tricolor (Efficacy in %) (Viola tricolor [7]; application rate 80 g/ha): 100%; Setaria viridis (Efficacy in %) (Setaria viridis [8]): 100%; Matricaria inodora (Efficacy in %) (Matricaria inodora [9]; application rate 80 g/ha): 100%; Veronica persica (Efficacy in %) (Veronica persica [10]; application rate 80 g/ha): 100%; Alopecurus myosuroides (Efficacy in %) (Alopecurus myosuroides): 90%; Hordeum murinum (Efficacy in %) (Hordeum murinum): 90%; Stellaria media (Efficacy in %) (Stellaria media [13]): 100%; Avena fatua (Efficacy in %) (Avena fatua): 100%; Veronica persica (Efficacy in %) (Veronica persica [18]; application rate 320 g/ha): 100%; Lolium rigidum (Efficacy in %) (Lolium rigidum): 100%
0%,0%,0%,0%,–,–,Cc1c(C(F)(F)F)n(C)c(=O)n(-c2cc(SC(CC(C)C)C(=O)OCC3CCCO3)c(Cl)cc2F)c1=O (stereo not shown) [I.14-71],–,–,–,–,–,–,–,100%,100%,100%,100%,–,–
10%,20%,–,–,0%,20%,CC(Sc1cc(-n2c(=O)cc(C(F)(F)F)n(C)c2=O)c(F)cc1Cl)C(=O)OCC1CCCCO1 (stereo not shown) [I.1-91],–,–,–,–,–,–,–,100%,100%,100%,100%,100%,Triticum aestivum (Efficacy in %) (Triticum aestivum; application rate 5 g/ha): 10%; Polygonum convolvulus (Efficacy in %) (Polygonum convolvulus; application rate 20 g/ha): 100%; Matricaria inodora (Efficacy in %) (Matricaria inodora [9]; application rate 20 g/ha): 100%; Amaranthus retroflexus (Efficacy in %) (Amaranthus retroflexus [12]; application rate 80 g/ha): 100%; Abutilon theophrasti (Efficacy in %) (Abutilon theophrasti [14]; application rate 80 g/ha): 100%; Viola tricolor (Efficacy in %) (Viola tricolor [15]; application rate 80 g/ha): 100%; Matricaria inodora (Efficacy in %) (Matricaria inodora [17]; application rate 80 g/ha): 100%; Veronica persica (Efficacy in %) (Veronica persica [18]; application rate 80 g/ha): 100%
0%,20%,20%,20%,–,–,Cc1c(C(F)(F)F)n(C)c(=O)n(-c2cc(SC(CC(C)C)C(=O)OCC3CCCCO3)c(Cl)cc2F)c1=O (stereo not shown) [I.14-91],–,–,–,–,–,–,–,80%,100%,100%,100%,100%,–
–,–,–,–,10%,0%,COCCOCCOC(=O)C(C)Sc1cc(-n2c(=O)cc(C(F)(F)F)n(C)c2=O)c(F)cc1Cl (stereo not shown) [I.1-23],100%,100%,100%,100%,100%,100%,100%,–,–,–,–,–,Oryza sativa (Efficacy in %) (Oryza sativa; application rate 5 g/ha): 10%
